In brackets after ≈: the same amount, converted by molar mass. Numbered stars: 1 amine (or outer) side, 2 acyl side, 3 side chain; on linkers, the order of the positions; unused ones are H or OH. Peptide text beside a SMILES is read from it. * marks the point of attachment. C20 diacid = O=C(O)CCCCCCCCCCCCCCCCCCC(=O)*; C18 diacid = O=C(O)CCCCCCCCCCCCCCCCC(=O)*; γGlu = O=C(O)[C@H](CCC(=O)[*:2])N[*:1]; C14 diacid = O=C(O)CCCCCCCCCCCCC(=O)*; Palmitoyl = CCCCCCCCCCCCCCCC(=O)*; AEEA = NCCOCCOCC(=O)O
Assay: Assay (IV) determination of solubility
Type: physicochemical
Procedure: Assay (IV)—Determination of Solubility
The mimylin peptide was dissolved in water at ˜500 nmol/ml and mixed 1:1 with a series of buffers (100 mM glycylglycine pH 3.0, 100 mM glycylglycine pH 4.0, 100 mM glycylglycine pH 5.0, 100 mM bistrispropane pH 6.0, 100 mM bistrispropane pH 6.5, 100 mM bistrispropane pH 7.0, 100 mM bistrispropane pH 7.5, 100 mM bistrispropane pH 8.0).

SMILES | Solubility (pH 3.0) | solubility at 18 h (pH 4.0) | solubility at 18 h (pH 5.0) | Solubility (pH 6.0) | Solubility (pH 6.5) | Solubility (pH 7.0) | Solubility (pH 7.5) | Solubility (pH 8.0) | Solubility (pH 4.0) | Solubility (pH 5.0)
CC(C)C[C@H](NC(=O)[C@H](C)NC(=O)[C@H](C)NC(=O)[C@@H](NC(=O)[C@H](CO)NC(=O)[C@H](CC(C)C)NC(=O)[C@H](CCC(=O)O)NC(=O)[C@H](CO)NC(=O)[C@H](C)NC(=O)COCCOCCNC(=O)COCCOCCNC(=O)COCCOCCNC(=O)CC[C@H](NC(=O)CCCCCCCCCCCCCCCCCCC(=O)O)C(=O)O)[C@@H](C)O)C(=O)NCC(=O)N[C@@H](CCCNC(=N)N)C(=O)N[C@@H](CC(C)C)C(=O)N[C@@H](CO)C(=O)N[C@@H](C)C(=O)N[C@@H](CCC(=O)O)C(=O)N[C@@H](CC(C)C)C(=O)N[C@@H](Cc1cnc[nH]1)C(=O)N[C@@H](CCC(=O)O)C(=O)N[C@@H](CC(C)C)C(=O)N[C@@H](C)C(=O)N[C@H](C(=O)N[C@@H](CC(C)C)C(=O)N1CCC[C@H]1C(=O)N[C@@H](CCCNC(=N)N)C(=O)N[C@H](C(=O)N[C@@H](CCC(=O)O)C(=O)N[C@H](C(=O)NCC(=O)N[C@@H](CO)C(=O)NCC(=O)N[C@@H](CO)C(=O)N1CCC[C@H]1C(N)=O)[C@@H](C)O)[C@@H](C)O)[C@@H](C)O [compound 43, [N-terminal(C20 diacid-gGlu-3xOEG), des1, 30S, 31G]mimylin] ({C20 diacid-γGlu-AEEA-AEEA-AEEA}-ASELSTAALGRLSAELHELATLPRTETGSGSP-NH2) | ≧200 μM | – | – | ≧200 μM | ≧200 μM | ≧200 μM | ≧200 μM | ≧200 μM | ≧200 μM | ≧200 μM
CCCCCCCCCCCCCCCC(=O)N[C@@H](CCC(=O)O)C(=O)N[C@@H](C)C(=O)N[C@@H](CO)C(=O)N[C@@H](CCC(=O)O)C(=O)N[C@@H](CC(C)C)C(=O)N[C@@H](CO)C(=O)N[C@H](C(=O)N[C@@H](C)C(=O)N[C@@H](C)C(=O)N[C@@H](CC(C)C)C(=O)NCC(=O)N[C@@H](CCCNC(=N)N)C(=O)N[C@@H](CC(C)C)C(=O)N[C@@H](CO)C(=O)N[C@@H](C)C(=O)N[C@@H](CCC(=O)O)C(=O)N[C@@H](CC(C)C)C(=O)N[C@@H](Cc1cnc[nH]1)C(=O)N[C@@H](CCC(=O)O)C(=O)N[C@@H](CC(C)C)C(=O)N[C@@H](C)C(=O)N[C@H](C(=O)N[C@@H](CC(C)C)C(=O)N1CCC[C@H]1C(=O)N[C@@H](CCCNC(=N)N)C(=O)N[C@H](C(=O)N[C@@H](CCC(=O)O)C(=O)N[C@H](C(=O)NCC(=O)N1CCC[C@H]1C(=O)N[C@@H](CCC(=O)O)C(=O)N[C@@H](CO)C(=O)N1CCC[C@H]1C(N)=O)[C@@H](C)O)[C@@H](C)O)[C@@H](C)O)[C@@H](C)O [compound 7, [N-terminal(C16)]mimylin] (Palmitoyl-EASELSTAALGRLSAELHELATLPRTETGPESP-NH2) | ≧200 μM | – | – | ≧200 μM | ≧200 μM | ≧200 μM | ≧200 μM | ≧200 μM | ≧200 μM | ≧200 μM
CC(C)C[C@H](NC(=O)[C@H](C)NC(=O)[C@H](C)NC(=O)[C@@H](NC(=O)[C@H](CO)NC(=O)[C@H](CC(C)C)NC(=O)[C@H](CCC(=O)O)NC(=O)[C@H](CO)NC(=O)[C@H](C)NC(=O)CC[C@H](NC(=O)CCCCCCCCCCCCC(=O)O)C(=O)O)[C@@H](C)O)C(=O)NCC(=O)N[C@@H](CCCNC(=N)N)C(=O)N[C@@H](CC(C)C)C(=O)N[C@@H](CO)C(=O)N[C@@H](C)C(=O)N[C@@H](CCC(=O)O)C(=O)N[C@@H](CC(C)C)C(=O)N[C@@H](Cc1cnc[nH]1)C(=O)N[C@@H](CCC(=O)O)C(=O)N[C@@H](CC(C)C)C(=O)N[C@@H](C)C(=O)N[C@H](C(=O)N[C@@H](CC(C)C)C(=O)N1CCC[C@H]1C(=O)N[C@@H](CCCNC(=N)N)C(=O)N[C@H](C(=O)N[C@@H](CCC(=O)O)C(=O)N[C@H](C(=O)NCC(=O)N1CCC[C@H]1C(=O)N[C@@H](CCC(=O)O)C(=O)N[C@@H](CO)C(=O)N1CCC[C@H]1C(N)=O)[C@@H](C)O)[C@@H](C)O)[C@@H](C)O [compound 19, [N-terminal(C14 diacid-gGlu), des1]mimylin] ({C14 diacid-γGlu}-ASELSTAALGRLSAELHELATLPRTETGPESP-NH2) | ≧200 μM | – | – | ≧200 μM | ≧200 μM | ≧200 μM | ≧200 μM | ≧200 μM | ≧200 μM | ≧200 μM

The next lines start with the values.

Solubility (pH 3.0) | solubility at 18 h (pH 4.0) | solubility at 18 h (pH 5.0) | Solubility (pH 6.0) | Solubility (pH 6.5) | Solubility (pH 7.0) | Solubility (pH 7.5) | Solubility (pH 8.0) | Solubility (pH 4.0) | Solubility (pH 5.0) | SMILES
≧200 μM | 1 µM (≈ 3.79 µg/mL) | 6 µM (≈ 22.8 µg/mL) | ≧200 μM | ≧200 μM | ≧200 μM | ≧200 μM | ≧200 μM | – | – | CC(C)C[C@H](NC(=O)[C@H](C)NC(=O)[C@H](C)NC(=O)[C@@H](NC(=O)[C@H](CO)NC(=O)[C@H](CC(C)C)NC(=O)[C@H](CCC(=O)O)NC(=O)[C@H](CO)NC(=O)[C@H](C)NC(=O)CC[C@H](NC(=O)CCCCCCCCCCCCCCCCCCC(=O)O)C(=O)O)[C@@H](C)O)C(=O)NCC(=O)N[C@@H](CCCNC(=N)N)C(=O)N[C@@H](CC(C)C)C(=O)N[C@@H](CO)C(=O)N[C@@H](C)C(=O)N[C@@H](CCC(=O)O)C(=O)N[C@@H](CC(C)C)C(=O)N[C@@H](Cc1cnc[nH]1)C(=O)N[C@@H](CCC(=O)O)C(=O)N[C@@H](CC(C)C)C(=O)N[C@@H](C)C(=O)N[C@H](C(=O)N[C@@H](Cc1ccc(O)cc1)C(=O)N1CCC[C@H]1C(=O)N[C@@H](CCCNC(=N)N)C(=O)N[C@H](C(=O)N[C@@H](CCC(=O)O)C(=O)N[C@H](C(=O)NCC(=O)N[C@@H](CO)C(=O)NCC(=O)N[C@@H](CO)C(=O)N[C@@H](Cc1ccc(O)cc1)C(=O)O)[C@@H](C)O)[C@@H](C)O)[C@@H](C)O [compound 88, [N-terminal(C20 diacid-gGlu), des1, 23Y, 30S, 31G, 33Y, C-terminal(−)]mimylin] ({C20 diacid-γGlu}-ASELSTAALGRLSAELHELATYPRTETGSGSY-OH)
≧200 μM | 174 µM (≈ 746 µg/mL) | 9 µM (≈ 38.6 µg/mL) | ≧200 μM | ≧200 μM | ≧200 μM | ≧200 μM | ≧200 μM | – | – | CC(C)C[C@H](NC(=O)CNC(=O)[C@H](CO)NC(=O)[C@H](C)NC(=O)CC[C@H](NC(=O)CCCCCCCCCCCCCCCCCCC(=O)O)C(=O)O)C(=O)N[C@@H](CO)C(=O)N[C@H](C(=O)N[C@@H](C)C(=O)N[C@H](C(=O)N[C@@H](CC(C)C)C(=O)NCC(=O)N[C@@H](CCCNC(=N)N)C(=O)N[C@@H](CC(C)C)C(=O)N[C@@H](CO)C(=O)N[C@@H](CCC(N)=O)C(=O)N[C@@H](CCC(=O)O)C(=O)N[C@@H](CC(C)C)C(=O)N[C@@H](Cc1cnc[nH]1)C(=O)N[C@@H](CCC(=O)O)C(=O)N[C@@H](CC(C)C)C(=O)N[C@@H](CCC(N)=O)C(=O)N[C@H](C(=O)N[C@@H](CC(C)C)C(=O)N[C@@H](CCC(N)=O)C(=O)N[C@H](C(=O)N[C@@H](Cc1ccc(O)cc1)C(=O)N1CCC[C@H]1C(=O)N[C@@H](CCCNC(=N)N)C(=O)N[C@H](C(=O)N[C@@H](CCC(=O)O)C(=O)N[C@H](C(=O)NCC(=O)N[C@@H](CO)C(=O)N[C@@H](CCC(N)=O)C(=O)N[C@H](C(=O)N[C@@H](Cc1ccc(O)cc1)C(N)=O)[C@@H](C)O)[C@@H](C)O)[C@@H](C)O)[C@@H](C)O)[C@@H](C)O)C(C)C)[C@@H](C)O [compound 130, [N-terminal(C20 diacid-gGlu), des1, 4G, 9V, 15Q, 21Q, 23aQ, 23bT, 23cY, 30S, 31Q, 32T, 33Y]mimylin] ({C20 diacid-γGlu}-ASGLSTAVLGRLSQELHELQTLQTYPRTETGSQTY-NH2)
≧200 μM | 7 µM (≈ 26.4 µg/mL) | 11 µM (≈ 41.5 µg/mL) | ≧200 μM | ≧200 μM | ≧200 μM | ≧200 μM | ≧200 μM | – | – | CC[C@H](C)[C@H](NC(=O)[C@H](C)NC(=O)[C@@H](NC(=O)[C@H](CO)NC(=O)[C@@H](NC(=O)[C@H](CCC(=O)O)NC(=O)[C@H](CO)NC(=O)[C@H](C)NC(=O)[C@H](CCC(=O)O)NC(=O)CCCCCCCCCCCCCCCCC(=O)O)[C@@H](C)CC)[C@@H](C)O)C(=O)N[C@H](C(=O)NCC(=O)N[C@@H](CCCNC(=N)N)C(=O)N[C@@H](CC(C)C)C(=O)N[C@@H](CO)C(=O)N[C@@H](C)C(=O)N[C@@H](CCC(=O)O)C(=O)N[C@@H](CC(C)C)C(=O)N[C@@H](Cc1cnc[nH]1)C(=O)N[C@@H](CCC(=O)O)C(=O)N[C@H](C(=O)N[C@@H](C)C(=O)N[C@H](C(=O)N[C@@H](CC(C)C)C(=O)N1CCC[C@H]1C(=O)N[C@@H](CCCNC(=N)N)C(=O)N[C@H](C(=O)N[C@@H](CCC(=O)O)C(=O)N[C@H](C(=O)NCC(=O)N1CCC[C@H]1C(=O)N[C@@H](CCC(=O)O)C(=O)N[C@@H](CO)C(=O)N1CCC[C@H]1C(N)=O)[C@@H](C)O)[C@@H](C)O)[C@@H](C)O)[C@@H](C)CC)[C@@H](C)CC [compound 77, [N-terminal(C18 diacid), 5I, 9I, 10I, 20I]mimylin] ({C18 diacid}-EASEISTAIIGRLSAELHEIATLPRTETGPESP-NH2)

Reference: US9593149B2, “Amylin and calcitonin receptor agonist” (Novo Nordisk A/S, priority 2014, dated 2017)
